This note sets out measurements from patent publication US12679837B2, “Aminopyrimidine compound as CDK2/4/6 triple inhibitor” (CISEN PHARMACEUTICAL CO., LTD, priority 2019, dated 2026).

One assay concerns the target T1, CDK2/CyclinE1 (Homo sapiens, UniProt P24941).
T1 construct: purchased Promega
Briefly: CDK2/CyclinE1 kinase activity test (ADP-Glo). The assay is classed as biochemical. As to conditions: 150 μM ATP, 25° C., 60 minutes; read-out: Enzyme activity data (IC50) CDK2/CyclinE1. As for the experimental part:
Nivo Multilabel Analyzer (PerkinElmer).
Experimental method: Kinase buffer dilution enzyme in the kit, substrate, adenosine triphosphate and inhibitor were used. The compounds to be tested were diluted 5-fold to the 8th concentration with a row gun, that is, from 50 μM to 0.65 nM, the concentration of DMSO was 5%, and a double-replicate well experiment was set up. […] The reaction system was placed at 25° C. and reacted for 60 minutes. After the reaction was complete, 5 μL of ADP-Glo reagent was added to each well, and the reaction was continued at 25° C. for 40 minutes. At the end of the reaction, 10 μL of kinase detection reagent was added to each well. After the reaction was continued at 25° C. for 30 minutes, the chemiluminescence was read by a multi-label analyzer with an integration time of 0.5 seconds.
(§1) Using the equation (Sample−Min)/(Max−Min)×100% to convert the original data into inhibition rate, the IC50 value can be obtained by curve fitting with four parameters (obtained by the mode of log(inhibitor) vs. response—Variable slope in GraphPad Prism). Table 1 provides the enzymatic inhibitory activities of the compounds of the present invention on CDK2/CyclinA2, CDK2/CyclinE1, CDK4/CyclinD1, CDK6/CyclinD1, CDK9/CyclinT1.
In general terms: In ADP-Glo the light output rises with the ADP produced.

The next assay addresses T2, CDK4/CyclinD1 (Homo sapiens, UniProt P11802).
T2 construct: purchased Invitrogen
The assay is described as follows: CDK4/CyclinD1 kinase activity test (LANCE Ultra TR-FRET). It is filed as biochemical. As to conditions: 350 μM ATP, 25° C., 120 minutes; read-out: Enzyme activity data (IC50) CDK4/cyclinD1. The method, then:
Experimental materials: CDK4/CyclinD1 kinase was purchased from Invitrogen, reaction substrate LANCE Ultra ULight™-4E-BP-1 (Thr37146) Peptide and EU-ANTI-P-4EBP1 (THR37/46) were purchased from PerkinElmer. Nivo Multilabel Analyzer (PerkinElmer).
(§2) Experimental method: preparation of kinase buffer: The components of the buffer include: 50 mM of hydroxyethylpiperazine […] solution with pH 7.5, 1 mM of EDTA, 10 mM of magnesium chloride, 0.01% lauryl polyoxyethylene ether (Brij-35), 2 mM of enzyme dithiothreitol, kinase buffer dilution enzyme, substrate LANCE Ultra ULight™-4E-BP-1 (Thr37146) Peptide, adenosine triphosphate and inhibitor. […] The reaction system was continued at 25° C. for 120 minutes. After the reaction was complete, a mixture of 5 μL of EDTA and 2× LANCE™ Detection Buffer (1:1) was added to each well, and reacted at 25° C. for 5 minutes, after the reaction was complete, 5 μL of LANCE Ultra Eu-anti-P-4E-BP1(Thr37MS) (4 nM) was added to each well, and reacted at 25° C. for 60 minutes, the reaction signal was detected by Nivo instrument according to the principle of time-resolved fluorescence resonance energy transfer.
(§3) Table 1 provides the enzymatic inhibitory activities of the compounds of the present invention on CDK2/CyclinA2, CDK2/CyclinE1, CDK4/CyclinD1, CDK6/CyclinD1, CDK9/CyclinT1.

Another assay deals with MDA-MB-468 cells. The assay is described as follows: MDA-MB-468 cell activity test (CellTiter-Glo). The assay is classed as cell-based. As for the experimental part: Experimental materials: L15 medium, fetal bovine serum, penicillin/streptomycin antibiotics were purchased from Vicente. CellTiter-Glo (chemiluminescence detection reagent for cell viability) reagent was purchased from Promega. The MDA-MB-468 cell line was purchased from Cobioer Biosciences Co., Ltd. Nivo Multilabel Analyzer (PerkinElmer).
Experimental method: MDA-MB-468 cells were seeded in a white 96-well plate, 80 μL of cell suspension per well, which contained 1000 MDA-MB-468 cells. The cell plate was incubated overnight in a carbon dioxide incubator. The compounds to be tested were diluted 5-fold to the 9th concentration with a row gun, that is, from 10 mM to 25.6 nM, and a double-replicate well experiment was set up. 78 μL of medium was added to the middle plate, and then transferred 2 μL per well of the gradient diluted compound to the middle plate according to the corresponding position, mixed well and transferred 20 μL per well to the cell plate. The concentration of compound transferred to the cell plate ranged from 50 μM to 0.128 nM. The cell plate was incubated in a carbon dioxide incubator for 7 days. Another cell plate was prepared, and the signal value was read as the maximum value (Max value in the equation below) on the day of drug addition to participate in data analysis. 25 μL of chemiluminescence detection reagent for cell viability was added to each well of the cell plate, and incubated at room temperature for 10 minutes to stabilize the luminescence signal. A multi-label analyzer was used for reading.
Data analysis: Using the equation (Sample−Min)/(Max−Min)×100% to convert the original data into inhibition rate, the IC50 value can be obtained by curve fitting with four parameters (obtained by the mode of log(inhibitor) vs. response—Variable slope in GraphPad Prism).
(Cellular ATP, detected with luciferase, serves as a proxy for viable cell number.)

Another assay has as its target T3, CDK6/CyclinD1 (Homo sapiens, UniProt Q00534).
T3 construct: purchased Carna
Briefly: CDK6/CyclinD1 kinase activity test (LANCE Ultra TR-FRET). The assay is classed as biochemical. Particulars: 250 μM ATP, 25° C., 120 minutes; read-out: Enzyme activity data (IC50) CDK6/cyclinD1. The method, then: Experimental materials: CDK6/CyclinD1 kinase was purchased from Carna, reaction substrate LANCE Ultra ULight™-4E-BP-1 (Thr37146) Peptide and EU-ANTI-P-4EBP1 (THR37/46) were purchased from PerkinElmer. Nivo Multilabel Analyzer (PerkinElmer).
as §2, §3
(In TR-FRET formats the signal depends on donor and acceptor labels being close together.)

In the next assay the target is T4, CDK2/CyclinA2 (Homo sapiens, UniProt P24941).
T4 construct: purchased Promega
The assay is described as follows: CDK2/CyclinA2 kinase activity test (ADP-Glo). Particulars: 50 μM ATP, 25° C., 60 minutes; read-out: Enzyme activity data (IC50) CDK2/cyclinA. It is filed as biochemical. As for the experimental part:
Experimental materials: CDK2/CyclinA2 kinase detection kit was purchased from Promega. Nivo Multilabel Analyzer (PerkinElmer).
Experimental method: Kinase buffer dilution enzyme in the kit, substrate, adenosine triphosphate and inhibitor were used. The compounds to be tested were diluted 5-fold to the 8th concentration with a row gun, that is, from 50 μM to 0.65 nM, the concentration of DMSO was 5%, and a double-replicate well experiment was set up. 1 μL of each concentration gradient of inhibitor, 2 μL of CDK2/CyclinA2 enzyme (1.6 ng), and 2 μL of a mixture of substrate and ATP (50 μM of adenosine triphosphate, 0.1 μg/μL of substrate) were added to the microplate, and at this time, the final concentration gradient of compound was diluted from 10 μM to 0.13 nM. The reaction system was placed at 25° C. and reacted for 60 minutes. After the reaction was complete, 5 μL of ADP-Glo reagent was added to each well, and the reaction was continued at 25° C. for 40 minutes. At the end of the reaction, 10 μL of kinase detection reagent was added to each well. After the reaction was continued at 25° C. for 30 minutes, the chemiluminescence was read by a multi-label analyzer with an integration time of 0.5 seconds.
as §1

Each structure is given as a SMILES string.

T3 sequence (Q00534 whole entry): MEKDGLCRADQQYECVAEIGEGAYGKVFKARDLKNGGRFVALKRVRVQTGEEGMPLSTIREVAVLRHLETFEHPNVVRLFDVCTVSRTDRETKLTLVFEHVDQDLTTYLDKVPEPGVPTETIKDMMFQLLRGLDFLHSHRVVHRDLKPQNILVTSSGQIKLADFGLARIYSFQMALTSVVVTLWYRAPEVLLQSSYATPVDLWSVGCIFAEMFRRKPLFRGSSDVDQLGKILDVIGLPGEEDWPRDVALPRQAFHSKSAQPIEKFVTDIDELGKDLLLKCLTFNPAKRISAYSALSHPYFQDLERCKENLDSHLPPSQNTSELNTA
T3 sequence (P24385 whole entry partner): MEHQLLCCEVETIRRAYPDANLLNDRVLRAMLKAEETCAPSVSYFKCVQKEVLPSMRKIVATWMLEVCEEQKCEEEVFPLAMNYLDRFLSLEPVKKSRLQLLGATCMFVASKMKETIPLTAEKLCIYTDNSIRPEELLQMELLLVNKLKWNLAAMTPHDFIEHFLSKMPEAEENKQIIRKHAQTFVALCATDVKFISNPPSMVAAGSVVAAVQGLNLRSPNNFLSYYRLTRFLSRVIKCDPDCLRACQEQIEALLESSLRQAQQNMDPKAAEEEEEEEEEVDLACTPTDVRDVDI
T2 sequence (P11802 whole entry): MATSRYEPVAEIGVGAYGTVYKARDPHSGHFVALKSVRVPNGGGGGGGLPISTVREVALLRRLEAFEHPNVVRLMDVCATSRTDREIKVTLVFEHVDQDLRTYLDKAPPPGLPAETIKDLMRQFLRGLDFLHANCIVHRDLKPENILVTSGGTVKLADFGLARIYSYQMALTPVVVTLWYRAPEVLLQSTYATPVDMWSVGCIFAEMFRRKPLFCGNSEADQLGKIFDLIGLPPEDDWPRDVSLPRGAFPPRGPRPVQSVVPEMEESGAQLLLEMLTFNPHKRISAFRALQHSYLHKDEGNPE
T2 sequence (P24385 whole entry partner): as the sequence (P24385 whole entry partner) above

As for `C[C@@]1(O)CCC[C@H]1N1C(=O)CCc2cnc(NC3CCN(S(C)(=O)=O)CC3)nc21` [Compound 1A], the IC50 amounted to 1.19 nM at CDK2/CyclinE1; 5.9 nM on CDK4/CyclinD1; 640 nM in the assay on MDA-MB-468 cells (Homo sapiens, 168 h, MDA-MB-468 cells (Rb-negative), 7 days, read-out: Antiproliferative activity (IC50) MDA-MB-468); 1.5 nM at CDK6/CyclinD1; 0.28 nM at CDK2/CyclinA2. Further, the “Selectivity ratio(MDA-MB-468/HCC1806)” value with MDA-MB-468 cells (ratio of antiproliferative IC50, MDA-MB-468/HCC1806) stood at 4.1.
